Test results published in publication PMC9468151, “Identification of a binding site on soluble RANKL that can be targeted to inhibit soluble RANK-RANKL interactions and treat osteoporosis” (Nature Communications, 2022).
Values joined by “and” are separate entries in the source; they are usually repeats but may differ in a detail not shown here. Identical values can stand only once.

Assays:
L-RANKL = molecular target: T1, L-RANKL (Rattus norvegicus, UniProt Q9ESE2, D175N); assay: STD NMR binding assay with L-RANKL; settings: 100 μM protein, 5 mM compound
T1 construct: (3) mRANKL (sRANKL-GSGS-sRANKL, rat 159-318 aa); His6-sumo (N); made in house; host or cells: Escherichia coli BL21 (DE3)
Description: For NMR studies, purified sRANKL or L-RANKL protein samples were buffer exchanged into PBS (Gbico, C10010500BT, pH7.4) using a Millipore spin column (1500 × g for 15 min at 4 °C, repeated six times, each time adding fresh PBS and discarding the flow-through). Protein concentration was determined using BCA method according to the procedure of Pierce^TM BCA Protein Assay Kit (Thermo Fisher Scientific). Compound S3-15 powder was dissolved in H2O as a concentration of 10 mM.
Protein saturation transfer difference (STD) experiments were performed on Bruker Avance III 500 (500 MHz) spectrometer (Columbia University) at 300 K using triple-resonance cryogenic probes optimized for proton detection. All experiments were performed using an independent sample for each experimental measurement as a 500 μL sample in NMR tubes with 100 μM protein and […] S3-15 in final concentration. Uniformly, for STD assay all samples were contained 50 μL protein, 200 μL S3-15 (10 mM in H2O), and 250 μL D2O; for S3-15 two-dimensional spectra reference, samples were 50 μL PBS, 200 μL S3-15 (10 mM in H2O) and 250 μL D2O.

T lymphocyte = T lymphocyte cell proliferation assay (CFSE, CD4+/CD8+ flow cytometry); format: cell-based, human
Description: T lymphocyte cell proliferation assay was performed according to a reported method[58] with some modification. Briefly, 5 × 10^6 cells /mL cells were stained 2.5 μM CFSE (Tonbo Biosciences) and incubated at 37 °C for 12 min. Then washed and discarded the supernatant and adjusted the CFSE stained cell to 1.75 × 10^6 cells /mL. Cells were diluted in 1640 completed medium containing 5 μg/mL anti-CD3 antibody (Tonbo Biosciences) to 3 × 10^5 cells/mL and seed in a 96-well plate or 24-well plate that pre-packaged 0.4 μg/well anti-CD28 antibody and 1.6 μg anti-CD28 antibody (24-well) (Tonbo Biosciences). Cells were then cultured for 3 days, 9 days or 12 days. Subsequently, the proportion of CD4^+ and CD8^+ cells was determined by flow cytometry (Beckman Coulter, FC500) according to manufacturer’s instruction of PE-Cyanine7 anti-Human CD8a and PE anti-Human CD4 antibodies (Tonbo Biosciences). Data analyzing was performed by using CXP software (Beckman Coulter, Supplementary Fig. 8).

[1] = Cancer donor 1, 3 day, S3-15 0.2
[2] = Cancer donor 1, 3 day, S3-15 10
[3] = Healthy donor 1, 3 day, S3-15 0.2
[4] = Healthy donor 1, 3 day, S3-15 1
[5] = Healthy donor 1, 3 day, S3-15 5
[6] = Healthy donor 1, 3 day, S3-15 10
[7] = Healthy donor 1, 12 day, S3-15 0.2
[8] = Healthy donor 1, 12 day, S3-15 1
[9] = Healthy donor 1, 12 day, S3-15 5
[10] = Healthy donor 1, 12 day, S3-15 10

T1 sequence (Q9ESE2 with tags, fused parts or gaps D175N): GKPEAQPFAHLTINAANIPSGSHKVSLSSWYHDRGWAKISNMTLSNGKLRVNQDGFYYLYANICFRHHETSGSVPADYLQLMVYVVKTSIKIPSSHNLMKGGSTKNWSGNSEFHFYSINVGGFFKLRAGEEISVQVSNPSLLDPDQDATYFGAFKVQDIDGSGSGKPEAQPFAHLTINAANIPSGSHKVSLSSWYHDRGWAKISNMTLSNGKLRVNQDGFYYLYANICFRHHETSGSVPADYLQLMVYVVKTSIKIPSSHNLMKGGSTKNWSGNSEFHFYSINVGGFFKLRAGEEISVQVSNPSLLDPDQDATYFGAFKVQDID

With `CC(=O)/C(=N\Nc1ccccc1C(=O)O)C(=O)Nc1ccccn1` [S3-15] the “STD-NMR binding to L-RANKL (mRANKL)” value (L-RANKL) was “low binding affinity”, the “CD8+ cells in total cells (%)” value (T lymphocyte; [1]) was 14.3% and 18.21% and 16% and 17.82% and the “CD8+cells in CFSE-cells (%)” value (T lymphocyte; [1]) was 44.38% and 49.16% and 53.36% and 45.53%. For the same compound, the “CFSE- cells in total cells (%)” value (T lymphocyte; [1]) was 7.99% and 11.49% and 11.51% and 10.07%, the “CD8+ cells in total cells (%)” value (T lymphocyte; Cancer donor 1, 3 day, S3-15 1) was 15.56% and 19.33% and 22.39% and 19.99% and the “CD8+cells in CFSE-cells (%)” value (T lymphocyte; Cancer donor 1, 3 day, S3-15 1) was 49.17% and 50.09% and 56.77% and 50.35%. The “CFSE- cells in total cells (%)” value (T lymphocyte; Cancer donor 1, 3 day, S3-15 1) was 9.93% and 12.76% and 16.17% and 13.25%, the “CD8+ cells in total cells (%)” value (T lymphocyte; Cancer donor 1, 3 day, S3-15 5) was 18.34% and 20.27% and 20.25% and 13.63% and the “CD8+cells in CFSE-cells (%)” value (T lymphocyte; Cancer donor 1, 3 day, S3-15 5) was 56.42% and 54.7% and 55.11% and 51.68%. The “CFSE- cells in total cells (%)” value (T lymphocyte; Cancer donor 1, 3 day, S3-15 5) was 12.69% and 14.11% and 13.95% and 8.72%, the “CD8+ cells in total cells (%)” value (T lymphocyte; [2]) was 19.25% and 18.44% and 17.07% and 14.93% and the “CD8+cells in CFSE-cells (%)” value (T lymphocyte; [2]) was 49.18% and 47.91% and 49.38% and 44.39%. The “CFSE- cells in total cells (%)” value (T lymphocyte; [2]) was 12.56% and 11.54% and 10.9% and 9.12%, the “CD4+cells in total cells (%)” value (T lymphocyte; [3]) was 68.58% and 70.02% and 62.64% and 62.46% and the “CD8+ cells in total cells (%)” value (T lymphocyte; [3]) was 18.64% and 19.25% and 16.01% and 13.6%. For the same compound, the “CD8+cells in CFSE-cells (%)” value (T lymphocyte; [3]) was 20.07% and 33.28% and 21.3% and 26.99%, the “CFSE- cells in total cells (%)” value (T lymphocyte; [3]) was 25.93% and 25.33% and 20.8% and 18.33% and the “CD4+cells in total cells (%)” value (T lymphocyte; [4]) was 63.51% and 67.38% and 70.68% and 68.88%. The “CD8+ cells in total cells (%)” value (T lymphocyte; [4]) was 12.65% and 15.35% and 17.94% and 14.88%, the “CFSE- cells in total cells (%)” value (T lymphocyte; [4]) was 21.49% and 20.46% and 25.21% and 18.85% and the “CD4+cells in total cells (%)” value (T lymphocyte; [5]) was 68.14% and 68.06% and 70.19% and 66.42%. For the same compound, the “CD8+ cells in total cells (%)” value (T lymphocyte; [5]) was 12.78% and 16.22% and 14.24% and 15.07%, the “CD8+cells in CFSE-cells (%)” value (T lymphocyte; [5]) was 16% and 25.32% and 17.12% and 15.1% and the “CFSE- cells in total cells (%)” value (T lymphocyte; [5]) was 22.52% and 22.58% and 17.52% and 21.09%. For the same compound, the “CD4+cells in total cells (%)” value (T lymphocyte; [6]) was 72.21% and 54.01% and 61.69% and 61.53%, the “CD8+ cells in total cells (%)” value (T lymphocyte; [6]) was 17.68% and 18.86% and 15.27% and 10.99% and the “CD8+cells in CFSE-cells (%)” value (T lymphocyte; [6]) was 13.48% and 20.77% and 16.03%. For the same compound, the “CFSE- cells in total cells (%)” value (T lymphocyte; [6]) was 22.22% and 20.93% and 15.94%, the “CD4+cells in total cells (%)” value (T lymphocyte; [7]) was 25.25% and 26.11% and 25.81% and 23.7% and the “CD8+ cells in total cells (%)” value (T lymphocyte; [7]) was 16% and 15.3% and 20.01% and 21.66%. For the same compound, the “CD8+cells in CFSE-cells (%)” value (T lymphocyte; [7]) was 74.91% and 72.37% and 73.55% and 71.27%, the “CFSE- cells in total cells (%)” value (T lymphocyte; [7]) was 16.3% and 15.37% and 18.72% and 19.27% and the “CD4+cells in total cells (%)” value (T lymphocyte; [8]) was 25.53% and 24.4% and 24.71% and 25.6%. For the same compound, the “CD8+ cells in total cells (%)” value (T lymphocyte; [8]) was 15.74% and 17.31% and 17.44% and 15.99%, the “CD8+cells in CFSE-cells (%)” value (T lymphocyte; [8]) was 74.2% and 73.02% and 72.56% and 72.37% and the “CFSE- cells in total cells (%)” value (T lymphocyte; [8]) was 15.48% and 17.29% and 17.32% and 15.2%. For the same compound, the “CD4+cells in total cells (%)” value (T lymphocyte; [9]) was 25.95% and 25.52% and 26.76% and 24.64%, the “CD8+ cells in total cells (%)” value (T lymphocyte; [9]) was 18.18% and 19.04% and 19.74% and 15.99% and the “CD8+cells in CFSE-cells (%)” value (T lymphocyte; [9]) was 75% and 70.17% and 74.02% and 72.37%. The “CFSE- cells in total cells (%)” value (T lymphocyte; [9]) was 16.98% and 16.53% and 18.76% and 15.2%, the “CD4+cells in total cells (%)” value (T lymphocyte; [10]) was 24.55% and 25.9% and 26.53% and 28.64% and the “CD8+ cells in total cells (%)” value (T lymphocyte; [10]) was 25.46% and 18.53% and 18.26% and 16.63%.
